{"source": "paper PMC10257520", "about": "(Journal of medicinal chemistry, 2022)", "key": {"[1]": {"system": "NCI-60 human tumor cell lines", "assay": "cells"}, "NCI-H522 cells": {"system": "NCI-H522 cells", "assay": "Time-lapse microscopy of cell death", "format": "cell-based, human", "settings": "for Time from initiation of ferroptosis until most/all cells were dead: CETZOLE-1 20 μM (most of the cells), HY-1 5 μM (all cells); for Start of ferroptosis after treatment: CETZOLE-1 20 μM, HY-1 5 μM"}, "RPE cells": {"system": "RPE cells", "assay": "cells", "settings": "Homo sapiens, read-out: IC50 on RPE cells"}, "[2]": {"system": "HDAC 1, 2, 3, 4, 6, and 8", "settings": "recombinant HDAC proteins"}, "SH-SY5Y cells": {"system": "SH-SY5Y cells", "assay": "MTT cell viability assay, SH-SY5Y neuroblastoma cells", "format": "cell-based, human", "settings": "0.5×, 1×, 2× IC50 of the controls on H522; HY-1 at 2.32 μM"}, "PC-12 cells": {"system": "PC-12 cells", "assay": "MTT cytotoxicity on undifferentiated and differentiated PC-12 cells", "format": "cell-based", "settings": "MTT after 24 h of treatment"}, "RPMI-8226": {"system": "RPMI-8226", "settings": "read-out: GI50, RPMI-8226; five-dose assay; ref public data base of NCI (NSC 759852); cited from earlier work"}, "SF-539 cell line": {"system": "SF-539 cell line", "settings": "read-out: GI50, SF-539; five-dose assay; ref public data base of NCI (NSC 759852); cited from earlier work"}, "DU-145 cells": {"system": "DU-145 cells", "settings": "one-dose; ref public data base of NCI (NSC 759852); cited from earlier work"}, "NCI-H23 cell line": {"system": "NCI-H23 cell line", "settings": "one-dose; ref public data base of NCI (NSC 759852); cited from earlier work"}, "LOXIMVI [3]": {"system": "LOXIMVI", "settings": "read-out: GI50, LOXIMVI; five-dose assay; ref public data base of NCI (NSC 759852); cited from earlier work"}, "HS578": {"system": "HS578", "settings": "read-out: GI50, HS578; five-dose assay; ref public data base of NCI (NSC 759852); cited from earlier work"}, "NCI-H23": {"system": "NCI-H23", "settings": "read-out: GI50, NCI-H23; five-dose assay; ref public data base of NCI (NSC 759852); cited from earlier work"}, "DU-145 [4]": {"system": "DU-145", "settings": "read-out: GI50, DU-145; five-dose assay; ref public data base of NCI (NSC 759852); cited from earlier work"}, "PC-3 [5]": {"system": "PC-3", "settings": "read-out: GI50, PC-3; five-dose assay; ref public data base of NCI (NSC 759852); cited from earlier work"}, "IGROV-1 [6]": {"system": "IGROV-1", "settings": "read-out: GI50, IGROV-1; five-dose assay; ref public data base of NCI (NSC 759852); cited from earlier work"}, "Class I HDACs": {"system": "Class I HDACs", "settings": "read-out: IC50 for Class I HDACs; recombinant HDAC proteins"}, "LOXIMVI [7]": {"system": "LOXIMVI", "assay": "cells", "settings": "Homo sapiens, LOX IMVI, read-out: GI50, LOXIMVI"}, "DU-145 [8]": {"system": "DU-145", "assay": "cells", "settings": "Homo sapiens, DU-145, read-out: GI50, DU-145"}, "[9]": {"system": "lipid peroxides in NCI-H522 cells", "assay": "C11-BODIPY lipid peroxidation assay", "format": "cell-based, human", "settings": "NCI-H522, 10 μM, 6 h"}, "PC-3 [10]": {"system": "PC-3", "assay": "cells", "settings": "Homo sapiens, PC-3, read-out: GI50, PC-3"}, "IGROV-1 [11]": {"system": "IGROV-1", "assay": "cells", "settings": "Homo sapiens, IGROV-1, read-out: GI50, IGROV-1"}}, "note": "Read-outs that look alike come from different tables or passages of the source."}
{"smiles": "C#Cc1nc(/C=C\\CCCCCC(=O)NO)cs1", "note": "[HY-2, (Z)-8-(2-Ethynylthiazol-4-yl)-N-hydroxyoct-7-enamide]", "values": [{"measurement": "GI50", "setting": "[1]; read-out: Average GI50", "result": 2.18, "unit": "µM"}]}
{"smiles": "C#Cc1nc(C2=C(C)[C@@H](O)CC2)cs1", "note": "[CETZOLE-1]", "values": [{"measurement": "Time from initiation of ferroptosis until most/all cells were dead", "setting": "NCI-H522 cells", "result": "≤ 8", "unit": "h"}, {"measurement": "Start of ferroptosis after treatment", "setting": "NCI-H522 cells", "result": "approximately 12 h"}, {"measurement": "IC50", "setting": "RPE cells", "result": "> 30", "unit": "µM"}]}
{"smiles": "C#Cc1nc(/C=C/C=C/C(=O)NO)cs1", "note": "[HY-4, (2E,4E)-5-(2-Ethynylthiazol-4-yl)-N-hydroxypenta-2,4-dienamide]", "values": [{"measurement": "HDAC inhibitory activity", "setting": "[2]", "result": "poor HDAC inhibitory activity"}, {"measurement": "Effect on neuronal cells (SH-SY5Y viability, neurotoxicity)", "setting": "SH-SY5Y cells", "result": "not showing attenuated neurotoxicity"}]}
{"smiles": "C#Cc1nc(/C=C/CCCCCC(=O)NO)cs1", "note": "[HY-3, (E)-8-(2-Ethynylthiazol-4-yl)-N-hydroxyoct-7-enamide]", "values": [{"measurement": "GI50", "setting": "[1]; read-out: Average GI50", "result": 3.39, "unit": "µM"}]}
{"smiles": "C#Cc1nc(C(=O)NCCCCCCC(=O)OC)cs1", "note": "[FC-1, Methyl 7-(2-Ethynylthiazole-4-carboxamido)heptanoate]", "values": [{"measurement": "Effect on neuronal cells (SH-SY5Y viability, neurotoxicity)", "setting": "SH-SY5Y cells", "result": "significant neurotoxicity"}, {"measurement": "Effect on PC-12 cells (differentiated and undifferentiated)", "setting": "PC-12 cells", "result": "resistant"}]}
{"smiles": "O=C(CCCCCCC(=O)Nc1ccccc1)NO", "note": "[SAHA]", "values": [{"measurement": "GI50", "setting": "RPMI-8226", "result": 1.5, "unit": "µM"}, {"measurement": "GI50", "setting": "SF-539 cell line", "result": 2, "unit": "µM"}, {"measurement": "Growth %, DU-145", "setting": "DU-145 cells", "result": 3.5, "unit": "%"}, {"measurement": "Growth %, NCI-H23", "setting": "NCI-H23 cell line", "result": 3.30, "unit": "%"}, {"measurement": "Time after treatment at which cells were still alive", "setting": "NCI-H522 cells; SAHA 5 μM", "result": "≥ 60", "unit": "h"}, {"measurement": "GI50", "setting": "LOXIMVI [3]", "result": 1.25, "unit": "µM"}, {"measurement": "GI50", "setting": "HS578", "result": 2, "unit": "µM"}, {"measurement": "GI50", "setting": "NCI-H23", "result": 2, "unit": "µM"}, {"measurement": "GI50", "setting": "DU-145 [4]", "result": 1.25, "unit": "µM"}, {"measurement": "GI50", "setting": "PC-3 [5]", "result": 1.58, "unit": "µM"}, {"measurement": "GI50", "setting": "IGROV-1 [6]", "result": 2, "unit": "µM"}]}
{"smiles": "COC(=O)CCCCCCNC(=O)c1csc(Br)n1", "note": "[NC-1, Methyl 7-(2-Bromothiazole-4-carboxamido)heptanoate]", "values": [{"measurement": "Effect on neuronal cells (SH-SY5Y viability, neurotoxicity)", "setting": "SH-SY5Y cells", "result": "no effect"}]}
{"smiles": "O=C(CCCCCCNC(=O)c1csc(Br)n1)NO", "note": "[HC-1, 2-Bromo-N-(7-(hydroxyamino)-7-oxoheptyl)thiazole-4-carboxamide]", "values": [{"measurement": "Effect on neuronal cells (SH-SY5Y viability, neurotoxicity)", "setting": "SH-SY5Y cells", "result": "very mild toxicity"}, {"measurement": "GI50", "setting": "[1]; read-out: Average GI50", "result": 1.51, "unit": "µM"}]}
{"smiles": "O=C(/C=C/C=C/c1csc(Br)n1)NO", "note": "[HC-4, (2E,4E)-5-(2-Bromothiazol-4-yl)-N-hydroxypenta-2,4-dienamide]", "values": [{"measurement": "HDAC inhibitory activity", "setting": "[2]", "result": "poor HDAC inhibitory activity"}]}
{"smiles": "C#Cc1nc(/C=C/C(=O)NO)cs1", "note": "[HY-5, (E)-3-(2-Ethynylthiazol-4-yl)-N-hydroxyacrylamide]", "values": [{"measurement": "IC50", "setting": "Class I HDACs", "result": "0.89 to 1.1", "unit": "µM"}, {"measurement": "GI50", "setting": "[1]; read-out: Average GI50", "result": 2.47, "unit": "µM"}]}
{"smiles": "C#Cc1nc(C(=O)NCCCCCCC(=O)NO)cs1", "note": "[HY-1, 2-Ethynyl-N-(7-(hydroxyamino)-7-oxoheptyl)thiazole-4-carboxamide]", "values": [{"measurement": "GI50", "setting": "LOXIMVI [7]", "result": 0.02, "unit": "µM"}, {"measurement": "GI50", "setting": "DU-145 [8]", "result": 0.36, "unit": "µM"}, {"measurement": "Time from initiation of ferroptosis until most/all cells were dead", "setting": "NCI-H522 cells", "result": "≤ 2", "unit": "h"}, {"measurement": "Start of ferroptosis after treatment", "setting": "NCI-H522 cells", "result": 8, "unit": "h"}, {"measurement": "Effect on neuronal cells (SH-SY5Y viability, neurotoxicity)", "setting": "SH-SY5Y cells", "result": "no neurotoxic effects"}, {"measurement": "Lipid peroxide levels (C11-BODIPY 581/591)", "setting": "[9]", "result": "increased levels of lipid peroxides"}, {"measurement": "Effect on PC-12 cells (differentiated and undifferentiated)", "setting": "PC-12 cells", "result": "behaved like the HDAC control HC-1"}, {"measurement": "GI50", "setting": "PC-3 [10]", "result": 2, "unit": "µM"}, {"measurement": "GI50", "setting": "[1]; read-out: Average GI50", "result": 0.85, "unit": "µM"}, {"measurement": "GI50", "setting": "[1]; read-out: GI50 values as low as (best cell line)", "result": 0.02, "unit": "µM"}, {"measurement": "GI50", "setting": "IGROV-1 [11]", "result": 0.57, "unit": "µM"}]}
